Patent US12655116B2, “Substituted isophthalic acid diamides” (Bayer Aktiengesellschaft, priority 2020, dated 2026)

What was measured:
ABUTH [1] = assay: Pre-emergence herbicidal action against ABUTH; type: in vivo, Abutilon theophrasti
How it was run: (§1)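 Seeds sown in sandy loam, soil-covered; compound sprayed on soil surface pre-emergence. Application: WP/EC, 600–800 l/ha, 0.2% wetting agent. Readout: visual % damage at 3 weeks.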

ALOMY [2] = assay: Pre-emergence herbicidal action against ALOMY; type: in vivo, Alopecurus myosuroides
How it was run: as §1

AMARE [3] = assay: Pre-emergence herbicidal action against AMARE; type: in vivo, Amaranthus retroflexus
How it was run: as §1

AVEFA = assay: Pre-emergence herbicidal action against AVEFA; type: in vivo, Avena fatua
How it was run: as §1

ECHCG [4] = assay: Pre-emergence herbicidal action against ECHCG; type: in vivo, Echinochloa crus-galli; settings: 80 g/ha
How it was run: as §1

MATIN [5] = assay: Pre-emergence herbicidal action against MATIN; type: in vivo, Matricaria inodora
How it was run: as §1

PHBPU [6] = assay: Pre-emergence herbicidal action against PHBPU; type: in vivo, Pharbitis purpurea; settings: dosage 80 g/ha
How it was run: as §1

POLCO = assay: Pre-emergence herbicidal action against POLCO; type: in vivo, Polygonum convolvulus
How it was run: as §1

SETVI [7] = assay: Pre-emergence herbicidal action against SETVI; type: in vivo, Setaria viridis
How it was run: as §1

VERPE [8] = assay: Pre-emergence herbicidal action against VERPE; type: in vivo, Veronica persica
How it was run: as §1

VIOTR [9] = assay: Pre-emergence herbicidal action against VIOTR; type: in vivo, Viola tricolor
How it was run: as §1

ABUTH [10] = assay: Post-emergence herbicidal action against ABUTH; type: in vivo, Abutilon theophrasti; settings: visual assessment about 3 weeks after treatment vs untreated controls
How it was run: (§2)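 Sandy loam, greenhouse; treatment 2–3 weeks after sowing, one-leaf stage. Aqueous suspension or emulsion from WP/EC sprayed on foliage (600–800 l/ha, 0.2% wetting agent). Readout: visual % action, ~3 weeks.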

ALOMY [11] = assay: Post-emergence herbicidal action against ALOMY; type: in vivo, Alopecurus myosuroides; settings: dosage 20 g/ha, visual assessment about 3 weeks after treatment vs untreated controls
How it was run: as §2

AMARE [12] = assay: Post-emergence herbicidal action against AMARE; type: in vivo, Amaranthus retroflexus; settings: 20 g/ha, visual assessment about 3 weeks after treatment, 100% = plants have died, 0% = like control plants
How it was run: as §2

MATIN [13] = assay: Post-emergence herbicidal action against MATIN; type: in vivo, Matricaria inodora; settings: dosage 20 g/ha
How it was run: as §2

SETVI [14] = assay: Post-emergence herbicidal action against SETVI; type: in vivo, Setaria viridis
How it was run: as §2

VERPE [15] = assay: Post-emergence herbicidal action against VERPE; type: in vivo, Veronica persica
How it was run: as §2

VIOTR [16] = assay: Post-emergence herbicidal action against VIOTR; type: in vivo, Viola tricolor
How it was run: as §2

ECHCG [17] = assay: Post-emergence herbicidal action against ECHCG; type: in vivo, Echinochloa crus-galli
How it was run: as §2

PHBPU [18] = assay: Post-emergence herbicidal action against PHBPU; type: in vivo, Pharbitis purpurea
How it was run: as §2

[19] = Setaria viridis, 504 h, dosage 20 g/ha
[20] = 80 g/ha, scored visually after 3 weeks vs untreated controls (100% = plants have died, 0% = like control plants)
[21] = 20 g/ha, scored visually after 3 weeks, 100% = plants have died, 0% = like control plants

CSc1c(C(=O)Nc2nnnn2C)ccc(C(F)F)c1C(=O)NC1CC1 [Example 1-89]
80%: pest or weed control at 80 g/ha (PHBPU [6]; Ipomoea purpurea, 504 h) | pest or weed control at 80 g/ha (POLCO; Fallopia convolvulus, 504 h, dosage 80 g/ha) | pest or weed control at 20 g/ha (MATIN [13]; Tripleurospermum inodorum, 504 h)
100%: pest or weed control at 80 g/ha (ABUTH [1]; Abutilon theophrasti, 504 h, 80 g/ha, scored visually after 3 weeks vs untreated controls (100% = plants have died, 0% = like control plants)) | pest or weed control at 20 g/ha (AMARE [3]; Amaranthus retroflexus, 504 h, 20 g/ha, scored visually after 3 weeks vs untreated controls, 100% = plants have died, 0% = like control plants) | pest or weed control at 80 g/ha (AMARE [3]; Amaranthus retroflexus, 504 h, 80 g/ha, scored visually after 3 weeks vs untreated controls, 100% = plants have died, 0% = like control plants) | pest or weed control at 80 g/ha (ECHCG [4]; Echinochloa crus-galli, 504 h) | pest or weed control at 80 g/ha (MATIN [5]; Tripleurospermum inodorum, 504 h, dosage 80 g/ha) | pest or weed control at 80 g/ha (SETVI [7]; Setaria viridis, 504 h, dosage 80 g/ha) | pest or weed control at 80 g/ha (VIOTR [9]; Viola tricolor, 504 h, dosage 80 g/ha) | pest or weed control at 20 g/ha (AMARE [12]; Amaranthus retroflexus, 504 h)
90%: pest or weed control at 20 g/ha (ABUTH [1]; Abutilon theophrasti, 504 h, dosage 20 g/ha, scored visually after 3 weeks vs untreated controls, 100% = plants have died, 0% = like control plants, read-out: Pre-emergence action against ABUTH (herbicidal activity in percent)) | pest or weed control at 80 g/ha (ALOMY [2]; Alopecurus myosuroides, 504 h, 80 g/ha, pre-emergence, scored visually after 3 weeks vs untreated controls (100% = plants have died, 0% = like control plants)) | pest or weed control at 80 g/ha (AVEFA; Avena fatua, 504 h, 80 g/ha, pre-emergence) | pest or weed control at 20 g/ha (MATIN [5]; Tripleurospermum inodorum, 504 h, dosage 20 g/ha) | pest or weed control at 20 g/ha (SETVI [7]; [19]) | pest or weed control at 80 g/ha (VERPE [8]; Veronica persica, 504 h, dosage 80 g/ha) | pest or weed control at 5 g/ha (ABUTH [10]; Abutilon theophrasti, 504 h, dosage 5 g/ha) | pest or weed control at 20 g/ha (ABUTH [10]; Abutilon theophrasti, 504 h, dosage 20 g/ha) | pest or weed control at 20 g/ha (ALOMY [11]; Alopecurus myosuroides, 504 h) | pest or weed control at 5 g/ha (SETVI [14]; Setaria viridis, 504 h, dosage 5 g/ha) | pest or weed control at 20 g/ha (SETVI [14]; [19]) | pest or weed control at 5 g/ha (VERPE [15]; Veronica persica, 504 h, 5 g/ha) | pest or weed control at 20 g/ha (VERPE [15]; Veronica persica, 504 h, 20 g/ha) | pest or weed control at 5 g/ha (VIOTR [16]; Viola tricolor, 504 h, 5 g/ha) | pest or weed control at 20 g/ha (VIOTR [16]; Viola tricolor, 504 h, 20 g/ha)

CCc1c(C(=O)Nc2nnnn2C)ccc(C(F)(F)F)c1C(=O)NCC1CC1 [Example 1-274]
90%: Pre-emergence action against ALOMY (herbicidal activity) (ALOMY [2]; 80 g/ha, pre-emergence, scored visually after 3 weeks vs untreated controls (100% = plants have died, 0% = like control plants)) | Pre-emergence action against AVEFA in % (AVEFA; 80 g/ha, pre-emergence) | Pre-emergence action against PHBPU in % (PHBPU [6]) | Pre-emergence action against POLCO in % (POLCO; dosage 80 g/ha) | Pre-emergence action against VERPE in % (VERPE [8]; dosage 20 g/ha) | Pre-emergence action against VERPE in % (VERPE [8]; dosage 80 g/ha) | Pre-emergence action against VIOTR in % (VIOTR [9]; dosage 20 g/ha) | Pre-emergence action against VIOTR in % (VIOTR [9]; dosage 80 g/ha) | Post-emergence action against ECHCG in % (ECHCG [17]; dosage 20 g/ha) | Post-emergence action against PHBPU in % (PHBPU [18]; dosage 20 g/ha) | Post-emergence action against SETVI in % (SETVI [14]; dosage 20 g/ha)
80%: Pre-emergence action against ALOMY (ALOMY [2]; [21]) | Pre-emergence action against AVEFA (AVEFA; [21]) | Pre-emergence action against POLCO in % (POLCO; dosage 20 g/ha) | Post-emergence action against ABUTH in % (ABUTH [10]; dosage 20 g/ha) | Post-emergence action against ALOMY in % (ALOMY [11]) | Post-emergence action against ECHCG in % (ECHCG [17]; dosage 5 g/ha) | Post-emergence action against MATIN in % (MATIN [13]) | Post-emergence action against PHBPU in % (PHBPU [18]; dosage 5 g/ha) | Post-emergence action against VERPE in % (VERPE [15]; 20 g/ha) | Post-emergence action against VIOTR in % (VIOTR [16]; 20 g/ha)
100%: Pre-emergence action against ABUTH (herbicidal activity) (ABUTH [1]; [20]) | Pre-emergence action against ABUTH (herbicidal activity in percent) (ABUTH [1]; dosage 20 g/ha, scored visually after 3 weeks vs untreated controls, 100% = plants have died, 0% = like control plants) | Pre-emergence action against AMARE in % (AMARE [3]; 20 g/ha, scored visually after 3 weeks vs untreated controls, 100% = plants have died, 0% = like control plants) | Pre-emergence action against AMARE in % (AMARE [3]; [20]) | Pre-emergence action against ECHCG in % (ECHCG [4]) | Pre-emergence action against MATIN in % (MATIN [5]; dosage 20 g/ha) | Pre-emergence action against MATIN in % (MATIN [5]; dosage 80 g/ha) | Pre-emergence action against SETVI in % (SETVI [7]; dosage 80 g/ha) | Post-emergence action at 20 g/ha against AMARE in % (AMARE [12])
